≈ marks a conversion by molar mass, not a printed value. Where two headings read alike, the source gives them in different places.
What was measured:
[1] = Limit of solubility in cell culture medium; type: physicochemical; conditions: aqueous buffer
Method: (§1) The 1050 values exceeded the solubility in medium for each compound—the limit of solubility in cell culture medium for the compounds were as follows: 2 micromolar for BNP1350 and SN38, and 20 micromolar for Topotecan. Cells were treated for periods of 2.5 hours or 6 hours and, in each case, the […] values were not reached. Longer treatments were not performed.

beagle dogs = test: Preclinical toxicology, oral single daily doses for five consecutive days, beagle dogs; conditions: oral vs i.v.
[2] = as above; conditions: beagle, dog, in vivo, po
Fischer rats = conditions: rat, in vivo, iv
[3] = tested on: mucinous cell lines (JHOM2B, OMC3, and COV644); test: SRB assay, joint statements for the mucinous cell lines incl. effect of BNP7787 on BNP1350-induced cytotoxicity; type: cell-based, human; conditions: each of JHOM2B, OMC3, COV644
Method: (§2) In vitro studies were conducted in human mucinous ovarian cancer cell lines including JHOM2B, OMC3, and COV644. In one series of experiments, the dose response curves for BNP1350 (also known as Karenitecin), SN-38 (Irinotecan), and Topotecan were obtained and IC50 values were determined. In a second series of experiments, the effect of BNP7787 (2,2′-dithio-bis-ethane sulfonate; Tavocept) on BNP1350-induced cytotoxicity at selected BNP1350 concentrations was examined.
The JHOM2B and OMC3 cell lines were purchased from Riken Cell Bank (Japan). The COV644 cell line was purchased from SigmaAldrich. Cells were maintained as monolayered cultures in T-75 flasks and then seeded to microtiter plate wells for experiments. Population doubling-times for these three cell lines were long (i.e., exceeding 40 hours, and for some of the cell lines approaching 96 hours); therefore, the Applicants conducted initial pilot experiments and determined optimal seeding density to obtain A570 values in untreated controls that would fall within the linear range of the SRB assay after seven (7) total days of cell growth. […]
The cells were manipulated in a Microzone laminar flow hood traditionally used for maintaining aseptic environments around automated instrumentation such as microplate robots, and the like. […] Cells were counted using a ViCell counter (Beckman-Coulter). An automated plate washer/stacker (ELx405/BioStak from BioTek Instruments) and a microplate reader (SpectraMax Plus from Molecular Devices) were used for conducting the SRB assay and determining A570 values for wells in the plates and the percentage of control values. Prior to SRB assays, cell viability was monitored by evaluation of microtiter plate wells. […]
The sulforhodamine B (SRB) cytotoxicity assay was used to assess cell survival. […] Plates were agitated (gently) for 5 minutes and the absorbance values of the SRB dye-protein adduct at 570 nanometers (A570) were determined using an automated microtiter plate reader (SpectraMax Plus, Molecular Devices). […]

[4] = tested on: panel of over twenty (20) human cancer cell lines; test: In vitro studies on a panel of over twenty human cancer cell lines; type: cell-based
COV644 Cell Line = test: SRB cytotoxicity assay, COV644; type: cell-based, human
Method: as §2
(§3) The JHOM2B and OMC3 cell lines were purchased from Riken Cell Bank (Japan). The COV644 cell line was purchased from SigmaAldrich. Cells were maintained as monolayered cultures in T-75 flasks and then seeded to microtiter plate wells for experiments. Population doubling-times for these three cell lines were long (i.e., exceeding 40 hours, and for some of the cell lines approaching 96 hours); therefore, the Applicants conducted initial pilot experiments and determined optimal seeding density to obtain A570 values in untreated controls that would fall within the linear range of the SRB assay after seven (7) total days of cell growth. JHOM2B cells were cultured in DMEM:F12 (1:1)+0.1 mM non-essential amino acids (NEAA)+10% FBS and were seeded at 6,000 cells per well. OMC3 cells were cultured in HamF12+10% FBS and were seeded at 8,000 cells per well. COV644 cells were cultured in DMEM+2 mM glutamine+10% FBS and were seeded at 6,000 cells per well.
(§4) The cells were manipulated in a Microzone laminar flow hood traditionally used for maintaining aseptic environments around automated instrumentation such as microplate robots, and the like. Cells were grown and maintained at 37° C. in a humidified atmosphere containing 5% CO2 in a water jacketed cell culture incubator (Forma Scientific). Cells were counted using a ViCell counter (Beckman-Coulter). An automated plate washer/stacker (ELx405/BioStak from BioTek Instruments) and a microplate reader (SpectraMax Plus from Molecular Devices) were used for conducting the SRB assay and determining A570 values for wells in the plates and the percentage of control values. Prior to SRB assays, cell viability was monitored by evaluation of microtiter plate wells. Dead cells detach and float while living cells remain attached to the bottom of the cell well.
(§5) SN-38 (Irinotecan; Sigma H0165, lot MKBQ4981) and Topotecan (Sigma T2705, lot 052M4728V) were purchased from SigmaAldrich. BNP1350 (lot KN-C192-135) and BNP7787 (lot 205001) were synthesized at BioNumerik Pharmaceuticals, Inc. (San Antonio, Tex.). BNP1350, SN38, and Topotecan were prepared as 2.5, 2.5, and 25 mM stocks in DMSO (ATCC, cell culture grade).
(§6) The sulforhodamine B (SRB) cytotoxicity assay was used to assess cell survival. Briefly, after the medium was decanted from individual plate wells, trichloroacetic acid (100 μL of 10.0 percent solution) was added to each well, and the plates were incubated at 4° C. for 1 hour. The plates were washed five times with water using an automated microplate washer (Model ELx405, Bio-Tek Instruments), SRB solution (100 μL of 0.4% SRB dissolved in 1.0 percent acetic acid) was added, and plates remained at room temperature for 15 minutes. The plates were then washed five times using acetic acid (1.0 percent), air dried, and bound dye was solubilized in Tris base (150 μL, 10 mM). Plates were agitated (gently) for 5 minutes and the absorbance values of the SRB dye-protein adduct at 570 nanometers (A570) were determined using an automated microtiter plate reader (SpectraMax Plus, Molecular Devices). IC50 values were extrapolated from dose response curves of the data using OriginLab Software.
as §1

[5] = biological target: T1, Breast Cancer Resistance Protein (BCRP) (Homo sapiens, UniProt Q9UNQ0); conditions: cited from earlier work
T1 sequence (Q9UNQ0 1-655): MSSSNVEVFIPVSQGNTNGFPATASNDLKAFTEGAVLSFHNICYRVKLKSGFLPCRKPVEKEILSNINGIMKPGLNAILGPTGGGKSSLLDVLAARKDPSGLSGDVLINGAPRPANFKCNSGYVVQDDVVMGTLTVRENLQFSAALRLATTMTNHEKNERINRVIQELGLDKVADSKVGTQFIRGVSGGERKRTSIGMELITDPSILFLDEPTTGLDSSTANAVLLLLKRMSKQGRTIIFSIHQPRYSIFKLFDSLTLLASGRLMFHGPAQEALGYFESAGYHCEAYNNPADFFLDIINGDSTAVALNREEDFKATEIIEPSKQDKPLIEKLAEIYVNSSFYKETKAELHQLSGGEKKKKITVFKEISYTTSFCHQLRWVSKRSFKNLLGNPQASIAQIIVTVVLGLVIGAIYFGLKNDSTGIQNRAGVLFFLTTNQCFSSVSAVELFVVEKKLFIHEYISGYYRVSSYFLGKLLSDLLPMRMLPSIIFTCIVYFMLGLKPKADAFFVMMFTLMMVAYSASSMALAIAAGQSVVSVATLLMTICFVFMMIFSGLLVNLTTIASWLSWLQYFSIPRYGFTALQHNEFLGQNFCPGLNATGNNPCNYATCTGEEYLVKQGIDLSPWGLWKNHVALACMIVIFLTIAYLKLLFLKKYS

JHOM2B Cell Line = test: SRB cytotoxicity assay, JHOM2B; type: cell-based, human; conditions: Homo sapiens
Method: as §2, §3, §4, §5, §6

For `CC[C@@]1(O)C(=O)OCc2c1cc1n(c2=O)Cc2c-1nc1ccccc1c2CC[Si](C)(C)C` [Karenitecin, (4S)-4-ethyl-4-hydroxy-11-[2-(trimethylsilyl)ethyl]-1H-pyrano[3′:4′:6,7]indolizino[1,2-b]quinoline-3,14(4H,12H)-dione], the solubility [1] was 2 µM (≈ 0.897 µg/mL), the “MTD of oral relative to intravenous (i.v.) Karenitecin” value (beagle dogs) was “approximately 2 times” and the MTD at 5 days [2] was 0.075 mg/kg. For the same molecule, the Toxicities observed (Fischer rats) was “reversible myelosuppression (predominantly neutropenia)”, the “Potency compared with SN38 and topotecan (dose response curves)” value [3] was “much more potent” and the “Antitumor potency compared with Topotecan or SN-38” value [4] was “significantly more potent”. The IC50 (COV644 Cell Line; Homo sapiens, 2, 5, and 6 hour drug exposures, did not reach 50% of Control, read-out: IC50, Test 1 (2 replicate plates)) was over 2000 nM, the IC50 (COV644 Cell Line; Homo sapiens, 2, 5, and 6 hour drug exposures, did not reach 50% of Control, read-out: IC50, Test 2 (2 to 3 replicate plates)) was over 2000 nM and the IC50 (COV644 Cell Line; Homo sapiens, 2, 5, and 6 hour drug exposures, read-out: IC50, Average) was over 2000 nM. For the same molecule, the IC50 (COV644 Cell Line; Homo sapiens, read-out: IC50 values) was over 2000 nM, the “Sensitivity to tumor-mediated drug resistance mechanisms, including BCRP” value [5] was “insensitive” and the IC50 (JHOM2B Cell Line; 2 hour drug exposure, average of Test 1 and Test 2, read-out: IC50, Average) was 69.5 nM. The IC50 (JHOM2B Cell Line; 2 hour drug exposure, read-out: IC50, Test 1 (2 replicate plates)) was 61 ± 4 nM, the IC50 (JHOM2B Cell Line; 2 hour drug exposure, read-out: IC50, Test 2 (3 replicate plates)) was 78 ± 9 nM and the IC50 (JHOM2B Cell Line; read-out: IC50 values) was 69.5 nM.
